From patent EP0436902B1, “5-Fluorouracil derivatives” (OTSUKA PHARMACEUTICAL CO., LTD., priority 1984, dated 1986)

Test system: Sarcoma-180
Assay: Pharmacological Test I: antitumor effect on subcutaneously transplanted Sarcoma-180 solid tumor in mice
Assay type: in vivo
Settings: Mus musculus, 240 h; ICR mice, Sarcoma-180 2 X 10⁷ cells subcutaneously; oral, once a day for 7 consecutive days, suspended in 5 % gum arabic; tumor weight on the 10th day; from dose-response curve; read-out: ED₅₀ (50 % tumor inhibition dose in which T/C is 0.5)
Protocol: Isophthaloyl chloride (1.50 g) and 6.0 ml of triethylamine were added to a solution of 1.00 g of 5-fluoro-1-(2-tetrahydrofuranyl)uracil in 50 ml of dioxane. The mixture was refluxed for 1.5 hours. The resulting precipitate was removed by filtration and the filtrate was concentrated. To the concentrate was added 50 ml of methylene chloride and thereto added was 10 ml of a solution of 1.50 g of 2,6-bis(trimethylsilyloxy)pyridine in methylene chloride. The mixture was left to stand at room temperature for 3 hours. The solvent was distilled off and the residue was subjected to silica gel column chromatography using as an eluent 2 % methanol-chloroform, giving 0.30 g of the title compound in a yield of 14 %. ¹H-NMR(CDCl₃)δ: 8.66-8.19 (3H, m, [drawing 76] 7.83-7.62 (2H, m, [drawing 77] and C₄-H of the pyridine ring) 7.52 (1H, d, J = 6Hz, C₆-H) 6.77 and 6.68 (each 1H, d, J = 8Hz, C₃·₅-H of the pyridine ring) 5.99-5.92 (1H, m, C1'-H) 4.30-3.88 (2H, m, C4'-H) 2.44-1.89 (4H, m, C2'·3'-H) Pharmacological Test I • (a) Sarcoma-180 subcultured in an ascites of ICR mice was diluted with a physiological saline solution and subcutaneously transplanted into the backs of ICR mice in an amount of 2 X 10⁷ cells each. Twenty-four hours after the transplantation, a test compound suspended in a 5 % solution of gum arabic was orally administered to each of mice once a day for 7 consecutive days.
The solid tumor was extirpated from under the dorsal skin of mice on the 10th day after the transplantation to measure the weight of the tumor. There was determined the ratio (T/C) of the weight or tumor (T) cut out from the group of mice treated with the test compound to the weight of tumor (C) from the group of mice not treated therewith. The 50 % tumor inhibition dose (ED₅₀ value) in which T/C is 0.5 was determined from the dose-response curve of dosage and the ratio (T/C).
Table 1 below lists the results together with the value obtained by using as a control an anti-cancer preparation containing 5-fluoro-1-(2-tetrahydrofuranyl)uracil and uracil in a ratio by weight of 1 to 4.

SMILES: N#Cc1ccc(OC(=O)c2ccco2)nc1OC(=O)c1cccc(C(=O)n2c(=O)c(F)cn(C3CCCO3)c2=O)c1 (centres unmarked) [Example 15, 3-[3-[3-cyano-6-(2-furoyloxy)-2-pyridyloxycarbonyl]benzoyl]-5-fluoro-1-(2-tetrahydrofuranyl)uracil]
- ED50: 18 mg/kg

SMILES: O=C(Oc1cc(OC(=O)c2ccccc2)c(Cl)cn1)c1cccc(C(=O)n2c(=O)c(F)cn(C3CCCO3)c2=O)c1 (centres unmarked) [Example 4, 3-[3-(4-benzoyloxy-5-chloro-2-pyridyloxycarbonyl)benzoyl]-5-fluoro-1-(2-tetrahydrofuranyl)uracil]
- ED50: 18 mg/kg

SMILES: O=C(Oc1cc(OC(=O)c2cccc(C(=O)n3c(=O)c(F)cn(C4CCCO4)c3=O)c2)c(Cl)cn1)c1ccccc1 (centres unmarked) [Example 3, 3-[3-(2-benzoyloxy-5-chloro-4-pyridyloxycarbonyl)benzoyl]-5-fluoro-1-(2-tetrahydrofuranyl)uracil]
- ED50: 25 mg/kg

SMILES: O=C(Oc1cc[nH]c(=O)c1)c1cccc(C(=O)n2c(=O)c(F)cn(C3CCCO3)c2=O)c1 (centres unmarked) [Example 1, 3-[3-(1,2-dihydro-2-oxo-4-pyridyloxycarbonyl)benzoyl]-5-fluoro-1-(2-tetrahydrofuranyl)uracil]
- ED50: 10 mg/kg

SMILES: O=C(Oc1cc(=O)n(C2CCCO2)cc1Cl)c1cccc(C(=O)n2c(=O)c(F)cn(C3CCCO3)c2=O)c1 (centres unmarked) [Example 10, 3-[3-[5-chloro-1,2-dihydro-2-oxo-1-(2-tetrahydrofuranyl)-4-pyridyloxycarbonyl]benzoyl]-5-fluoro-1-(2-tetrahydrofuranyl)uracil]
- ED50: 28 mg/kg
